Patent US4576934A, “Antihypertensive dihydropyridine-5-phosphonic acid cyclic esters” (Nissan Chemical Industries Ltd., priority 1983, dated 1986)
Counter-ions that a name gives are not always drawn.

Key:
[1] = tested on: male spontaneously hypertensive rat (SHR); experiment: Antihypertensive effects: systolic blood pressure after oral administration to SHR, tail cuff method; format: in vivo; conditions: read-out: Antihypertensive effects, Maximum decrease (%)
Protocol: (2) Antihypertensive effects
After oral administration of the test compound dissolved in a H2 O-PEG 400 solvent mixture (H2 O:PEG 400 (w/w)=1:3) to the male spontaneously hypertensive rat (SHR), the systolic blood pressure was measured by a tail cuff method. Prior to the measurement, rats were warmed at 50° C. for five minutes.

[2] = tested on: taenia caecum of guinea pig; experiment: Calcium antagonistic effects: relaxation of CaCl2-induced contraction of K+-depolarized taenia caecum; format: cell-based; conditions: Cavia porcellus, relative to maximum relaxation by 10^-4 M papaverine, 10 mM CaCl2, 37° C., read-out: pID50 (pID50 = -log [ID50]), concentration producing 50% relaxation (converted)
Protocol: (1) Calcium antagonistic effects
Then, the preparation was depolarized by a K^+ rich solution (NaCl: 40 mM, KCl: 100 mM). After 10-20 minutes equilibration period, 10 mM of CaCl2 was added to the bathing solution. The contraction was produced, and then the test compound applied cumulatively.

[3] = Acute toxicity test (LD50) in mice; conditions: mouse, in vivo, male ddY mice, after seven days
Protocol: Test 2: Acute toxicity test
ddY mice (.male., 4 weeks old) were divided into groups of five mice and the test compound dissolved in purified water was administered orally (5% solution) or intraperitoneally (1% solution) to the male ddY mice.
After seven days, LD50 values were calculated from the dead […] recorded in the individual dosage groups by the method of Litchfield-Wilcoxon.

Row | Structure (SMILES) | EC50 [2] [nM] | inhibition in vivo at 10 mg/kg [1] [%] | inhibition in vivo at 20 mg/kg [1] [%] | further results
1 | COC(=O)C1=C(C)NC(C)=C(C(=O)OC)C1c1ccccc1[N+](=O)[O-] [Nifedipine, reference compound] | 2.88 | 26 |  | 
2 | CC1=C(C(=O)OCCN2CCN(C(c3ccccc3)c3ccccc3)CC2)C(c2ccccc2Cl)C(P2(=O)OC(C)CC(C)O2)=C(C)N1 (stereo not drawn) [Hydrochloride of Example 11] | 24.5 | 29 |  | 
3 | CC1=C(C(=O)OCCN(C)Cc2ccccc2)C(c2cccc([N+](=O)[O-])c2)C(P2(=O)OC(C)CC(C)O2)=C(C)N1 (stereo not drawn) [Hydrochloride of Example 5] | 2.45 |  | 50 | 
4 | CC1=C(C(=O)OCCN(C)Cc2ccccc2)C(c2ccccc2C(F)(F)F)C(P2(=O)OCC(C)(C)CO2)=C(C)N1 (stereo not drawn) [Hydrochloride of Example 17] | 4.27 |  | 42 | 
5 | CC1=C(C(=O)OCCN(C)Cc2ccccc2)C(c2cccc([N+](=O)[O-])c2)C(P2(=O)OCC(C)(C)CO2)=C(C)N1 (stereo not drawn) [Hydrochloride of Example 16] | 3.55 | 21 |  | 
6 | CC1=C(C(=O)OCCN(C)Cc2ccccc2)C(c2cccc(Cl)c2)C(P2(=O)OC(C)CC(C)O2)=C(C)N1 (stereo not drawn) [Hydrochloride of Example 7] | 5.5 |  | 49 | LD50 at 168 h ([3]; ip, i.p. (1% solution)): 23 mg/kg; LD50 at 168 h ([3]; po, p.o. (5% solution)): 74 mg/kg
7 | COC(=O)C1=C(C)NC(C)=C(C(=O)OCCN(C)Cc2ccccc2)C1c1cccc([N+](=O)[O-])c1 (stereo not drawn) [Nicardipine, reference compound] | 0.417 |  | 34 | LD50 at 168 h ([3]; ip, i.p. (1% solution)): 166 mg/kg; LD50 at 168 h ([3]; po, p.o. (5% solution)): 561 mg/kg
8 | CC1=C(C(=O)OCCN(C)Cc2ccccc2)C(c2ccccc2C(F)(F)F)C(P2(=O)OC(C)CC(C)O2)=C(C)N1 (stereo not drawn) [Hydrochloride of Example 6] | 4.47 |  |  | inhibition in vivo at 5 mg/kg ([1]; dose 5 mg/kg): 37%; LD50 at 168 h ([3]; ip, i.p. (1% solution)): 17 mg/kg; LD50 at 168 h ([3]; po, p.o. (5% solution)): 53 mg/kg
9 | CC1=C(C(=O)OCCN2CCN(C(c3ccccc3)c3ccccc3)CC2)C(c2cccc([N+](=O)[O-])c2)C(P2(=O)OC(C)CC(C)O2)=C(C)N1 (stereo not drawn) [Hydrochloride of Example 9] | 29.5 |  | 36 | 
10 | CC1=C(C(=O)OCCN(C)Cc2ccccc2)C(c2cccc(Cl)c2)C(P2(=O)OC(C)CCC(C)O2)=C(C)N1 (stereo not drawn) [Hydrochloride of Example 3] | 3.98 | 15 |  | 
11 | COC(=O)C1=C(C)NC(C)=C(P2(=O)OC(C)CC(C)O2)C1c1ccccc1C(F)(F)F (stereo not drawn) [Hydrochloride of Example 21] | 1.91 |  | 35 | 

Continued, in another order:

Row | EC50 [2] [nM] | Structure (SMILES) | inhibition in vivo at 10 mg/kg [1] [%] | inhibition in vivo at 20 mg/kg [1] [%] | further results
12 | 275 | COc1ccc([C@@H]2Sc3ccccc3N(CCN(C)C)C(=O)[C@@H]2OC(C)=O)cc1 [Diltiazem, reference compound] |  |  | inhibition in vivo at 60 mg/kg ([1]; dose 60 mg/kg): 10%
13 | 2.82 | CC1=C(C(=O)OCCN(C)Cc2ccccc2)C(c2ccccc2Cl)C(P2(=O)OC(C)CC(C)O2)=C(C)N1 (stereo not drawn) [Hydrochloride of Example 8] | 47 |  | 
14 | 3.02 | CC1=C(C(=O)OCCN(C)Cc2ccccc2)C(c2cccc(Cl)c2)C(P2(=O)OCCC(C)O2)=C(C)N1 (stereo not drawn) [Hydrochloride of Example 14] | 14 |  | 
15 | 7.08 | CC1=C(C(=O)OCCN(C)Cc2ccccc2)C(c2cccc([N+](=O)[O-])c2)C(P2(=O)OC(C)CCC(C)O2)=C(C)N1 (stereo not drawn) [Hydrochloride of Example 1] |  | 50 | 
16 | 57.5 | CC1=C(C(=O)OCCN2CCN(C(c3ccccc3)c3ccccc3)CC2)C(c2ccccc2C(F)(F)F)C(P2(=O)OC(C)CC(C)O2)=C(C)N1 (stereo not drawn) [Hydrochloride of Example 10] |  | 46 | 
17 | 4.9 | CC1=C(C(=O)OCCN(C)Cc2ccccc2)C(c2ccccc2Cl)C(P2(=O)OC(C)CCC(C)O2)=C(C)N1 (stereo not drawn) [Hydrochloride of Example 4] | 15 |  | 
18 | 5.13 | CC1=C(C(=O)OCCN(C)Cc2ccccc2)C(c2ccccc2Cl)C(P2(=O)OCC(C)(C)CO2)=C(C)N1 (stereo not drawn) [Hydrochloride of Example 19] | 30 |  | 
19 | 5.89 | CC1=C(C(=O)OCCN(C)Cc2ccccc2)C(c2ccccc2C(F)(F)F)C(P2(=O)OC(C)CCC(C)O2)=C(C)N1 (stereo not drawn) [Hydrochloride of Example 2] |  | 45 | 
20 | 4.47 | CC1=C(C(=O)OCCN(C)Cc2ccccc2)C(c2cccc(Cl)c2)C(P2(=O)OCC(C)(C)CO2)=C(C)N1 (stereo not drawn) [Hydrochloride of Example 18] | 17 |  | 
21 | 3.24 | CC1=C(C(=O)OCCN(C)Cc2ccccc2)C(c2ccccc2Cl)C(P2(=O)OCCC(C)O2)=C(C)N1 (stereo not drawn) [Hydrochloride of Example 15] | 38 |  | 
22 | 2.57 | CC1=C(C(=O)OCCN(C)Cc2ccccc2)C(c2cccc([N+](=O)[O-])c2)C(P2(=O)OCCC(C)O2)=C(C)N1 (stereo not drawn) [Hydrochloride of Example 12] | 18 |  | 
23 | 12.3 | CC1=C(C(=O)OCCN(C)Cc2ccccc2)C(c2ccccc2C(F)(F)F)C(P2(=O)OCCC(C)O2)=C(C)N1 (stereo not drawn) [Hydrochloride of Example 13] | 39 |  | 
24 | 2.04 | COC(=O)C1=C(C)NC(C)=C(P2(=O)OCCC(C)O2)C1c1ccccc1C(F)(F)F (stereo not drawn) [Hydrochloride of Example 20] |  | 32 | 
